Laboratory results as given in article PMC3521961, “Molecular Basis for Recognition of Dilysine Trafficking Motifs by COPI” (Developmental Cell, 2012).
Entries after “also recorded” stand apart in the source; their conditions may differ. Values belong to the substance of their own block, whether it stands above or below them. No end group written: not given here.

Experiments:
[1] = test system: α-COP R13A K15S R57S mutant (α1-327); test: ITC with α1-327 R13A K15S R57S mutant; assay type: binding, yeast; details: 10°C, 300 mM NaCl
Description: (§1) ITC experiments were conducted on a Microcal VP-ITC machine (GE Healthcare) at 10°C. Molar peptide concentration in the syringe was ten times that of protein in the cell. β'-COP constructs were gel filtered into 50 mM HEPES (pH 7.4) and 100 mM NaCl, and α-COP constructs were gel filtered into 50 mM HEPES (pH 7.4) and 300 mM NaCl prior to runs. Titration data were analyzed in ORIGIN to obtain values for stoichiometry (N), equilibrium association constant (Ka), and enthalpy of binding. All experiments were carried out at least three times with appropriate standard deviations reported.
(§2) Figure S3, related to Figure 2. Model and in vitro data of α-COP 1-327 binding to a KKxx
(§3) motif. A homology model of residues 1-327 of yeast α-COP binding to the KKTN motif from
(§4) (1 picture or pasted object on this page, not shown here)
(§5) Homology model of the α-COP N-terminal propeller
(§6) Isothermal titration calorimetry

[2] = test system: α-COP D229A E273A mutant (α1-327); test: ITC with α1-327 D229A E273A mutant; assay type: binding, yeast; details: 10°C, 300 mM NaCl
Description: as §1, §2, §3, §4, §5, §6

[3] = test system: α-COP D96A D115A mutant (α1-327); test: ITC with α1-327 D96A D115A mutant; assay type: binding, yeast; details: 10°C, 300 mM NaCl
Description: as §1, §2, §3, §4, §5, §6

[4] = target: T1, yeast β'-COP 1-304 (N-terminal WD-repeat domain), wild-type (Saccharomyces cerevisiae, UniProt P41811); test: ITC of dilysine motif peptides with wild-type β'1-304; assay type: binding; details: for binding by ITC (in words): 10°C, 50 mM HEPES pH 7.4, 100 mM NaCl, at least three runs
T1 construct: GST (thrombin-cleavable) (C, cleaved yes); made in house; host or cells: E. coli BL21(DE3)pLysS
T1 sequence (P41811 1-304): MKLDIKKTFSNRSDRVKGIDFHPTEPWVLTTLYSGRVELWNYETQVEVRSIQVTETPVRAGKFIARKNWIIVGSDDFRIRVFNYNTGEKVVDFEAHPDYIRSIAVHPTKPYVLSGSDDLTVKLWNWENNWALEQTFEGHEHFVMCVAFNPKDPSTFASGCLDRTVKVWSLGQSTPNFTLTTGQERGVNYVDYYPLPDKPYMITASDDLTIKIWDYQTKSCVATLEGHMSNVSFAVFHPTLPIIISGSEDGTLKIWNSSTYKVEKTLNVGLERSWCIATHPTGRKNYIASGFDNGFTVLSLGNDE
Description: as §6
equilibrium association constant (Ka), and enthalpy of binding. All experiments were carried out
100 mM NaCl to mimic physiological salt conditions. Wild type yeast α-COP (α1-327) was gel
Immediately prior to a run, the protein was
mM NaCl than at 100 mM NaCl.
and ultraviolet absorbance (Agilent 1200 UV, Agilent Technologies). Samples of β’1-304 or 1-
the construct lacks the α-solenoid domain. […]

[5] = target: β'-COP R15A K17A R59A mutant (β'1-304) (Saccharomyces cerevisiae, UniProt P41811, K17A/R15A/R59A); test: biochemical
Description: (§7) The β'-COP R15A K17A R59A mutant was designed to disrupt binding to the carboxy terminus of the motif, and the D206A E248A mutant was intended to disrupt binding to the -3 lysine.
as §1, §5, §6

[6] = target: β'-COP D206A E248A mutant (β'1-304) (Saccharomyces cerevisiae, UniProt P41811, D206A/E248A); test: biochemical
Description: as §7, §1, §5, §6

[7] = target: β'-COP D98A D117A mutant (β'1-304) (Saccharomyces cerevisiae, UniProt P41811, D117A/D98A); test: biochemical
Description: as §7, §1, §5, §6

Chain of β'-COP D98A D117A mutant (β'1-304) (P41811 1-304 D98A/D117A): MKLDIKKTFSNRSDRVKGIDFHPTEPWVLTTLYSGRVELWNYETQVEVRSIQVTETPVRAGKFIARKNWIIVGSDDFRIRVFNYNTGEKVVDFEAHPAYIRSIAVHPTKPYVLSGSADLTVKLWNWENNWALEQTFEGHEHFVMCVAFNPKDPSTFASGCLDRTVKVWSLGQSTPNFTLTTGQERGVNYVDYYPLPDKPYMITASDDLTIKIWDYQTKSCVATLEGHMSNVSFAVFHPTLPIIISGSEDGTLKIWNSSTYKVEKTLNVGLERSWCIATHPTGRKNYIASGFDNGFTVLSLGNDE
Chain of β'-COP R15A K17A R59A mutant (β'1-304) (P41811 1-304 R15A/K17A/R59A): as the sequence (P41811 1-304 D98A/D117A) above, with R15A, K17A, R59A, A98D, A117D counted along it
Chain of β'-COP D206A E248A mutant (β'1-304) (P41811 1-304 D206A/E248A): as the sequence (P41811 1-304 D98A/D117A) above, with A98D, A117D, D206A, E248A counted along it

Substance: CTFKKTN-OH [KKTN]
binding by ITC (in words) [1]: no measurable binding | binding by ITC (in words) [2]: no measurable binding | binding by ITC (in words) [3]: no measurable binding

Substance: KKLIE [KKLIE peptide from p23]
binding by ITC (in words) [4]: no measurable binding; also recorded: does not bind

Substance: KTSLL [KTKLL motif variant lacking the -3 lysine]
binding by ITC (in words) [4]: no measurable binding

Substance: RQEIIKTKLL [KTKLL]
measured KD at 300 mM NaCl relative to 100 mM NaCl ([4]; ITC control runs in 300 mM NaCl compared to 100 mM NaCl): four- to five-fold weaker | Kd [5]: < 300 µM | Kd [6]: < 300 µM | Kd [7]: < 300 µM

Results, then the substance that gave them:

binding by ITC (in words) [4]: no measurable binding
Substance: KTKLL-CONH2 [amidated KTKLL peptide]

binding by ITC (in words) [4]: no measurable binding
Substance: RRVV [RRVV peptide from p24]
